In the supplement of paper PMC10331698:
± gives the standard deviation of the averaged measurements.

What was measured:
Experiment in all cases: level (log10 ratio to DMSO vehicle control); higher = higher biomarker level / cell amount than vehicle control
Details in all cases: in DMSO
1-(Perfluorohexyl)octane = compound: CCCCCCCCC(F)(F)C(F)(F)C(F)(F)C(F)(F)C(F)(F)C(F)(F)F [1-(Perfluorohexyl)octane]
Experimental: (§1)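 BioMAP Diversity Plus panel of 12 human primary cell co-culture systems (3C, 4H, LPS, SAg, BT, BF4T, BE3C, CASM3C, HDF3CGF, KF3CT, MyoF, Mphg). Compounds were added 1 h before stimulation and left for 24 h (MyoF 48 h; BT 72 h for soluble read-outs or 6 d for IgG). Biomarkers were read by ELISA, cytotoxicity by SRB, PBMC viability and proliferation by Alamar Blue. Each well value was divided by the mean of 8 DMSO control wells on the same plate and log10 transformed; duplicate blinded samples were tested at 4 concentrations.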

[1] = compound: O=C(O)C(F)(F)C(F)(F)C(F)(F)C(F)(F)C(F)(F)C(F)(F)C(F)(F)C(F)(F)C(F)(F)C(F)(F)C(F)(F)C(F)(F)C(F)(F)F [Perfluorotetradecanoic acid]
Experimental: as §1

[2] = compound: O=C(O)C(F)(F)C(F)(F)C(F)(F)C(F)(F)C(F)(F)C(F)(F)C(F)(F)C(F)(F)Cl [9-Chloro-perfluorononanoic acid]
Experimental: as §1

[3] = compound: O=C(O)C(F)(F)OC(F)(F)C(F)(F)OC(F)(F)C(F)(F)C(F)(F)C(F)(F)F [Perfluoro-3,6-dioxadecanoic acid]
Experimental: as §1

| Test System | level (log10) (1-(Perfluorohexyl)octane; 6700 nM) | level (log10) (1-(Perfluorohexyl)octane; 20000 nM) | level (log10) ([1]; 6700 nM) | level (log10) ([1]; 20000 nM) | level (log10) ([2]; 6700 nM) | level (log10) ([2]; 20000 nM) | level (log10) ([3]; 6700 nM) | level (log10) ([3]; 20000 nM) | level (log10) ([3]; 60000 nM) |
| --- | --- | --- | --- | --- | --- | --- | --- | --- | --- |
| SAg:CXCL8/IL-8 | -0.013 ± 0.0085 | 0.032 ± 0.041 | -0.028 ± 0.051 | 0.0035 ± 0.069 | 0.0125 ± 0.0078 | 0.0445 ± 0.0092 | -0.018 ± 0.0028 | -0.0295 ± 0.018 | -0.0385 ± 0.022 |
| SAg:CXCL9/MIG | -0.002 ± 0.0057 | 0.0095 ± 0.016 | -0.004 ± 0.014 | 0.001 ± 0.0085 | -0.001 ± 0.013 | -0.0025 ± 0.0021 | -0.0095 ± 0.016 | -0.0135 ± 0.013 | 0.01 ± 0.0042 |
| SAg:PBMC Cytotoxicity | 0.023 ± 0.011 | 0.023 ± 0.017 | -0.051 ± 0.014 | -0.016 ± 0.024 | 0.032 ± 0.028 | 0.0255 ± 0.032 | 0.03 ± 0.0085 | 0.0395 ± 0.018 | 0.0705 ± 0.00071 |
| SAg:Proliferation | 0.0125 ± 0.04 | 0.0675 ± 0.03 | -0.038 ± 0.045 | -0.014 ± 0.025 | -0.036 ± 0.033 | 0.02 ± 0.02 | -0.007 ± 0.03 | 0.023 ± 0.033 | 0.0095 ± 0.043 |
| SAg:SRB | 0.0035 ± 0.0078 | -0.004 ± 0.018 | -0.0025 ± 0.013 | -0.008 ± 0.024 | -0.003 ± 0.0099 | -0.0105 ± 0.005 | -0.016 ± 0.0014 | -0.0085 ± 0.021 | -0.0855 ± 0.037 |
